This note sets out measurements from patent US11458132B2, “Quinolin-2(1H)-one inhibitors of Late SV40 Factor” (TRUSTEES OF BOSTON UNIVERSITY, priority 2020, dated 2022).

Experiment [1] has as its system FH-B cells. Nature of the experiment: MTS cell proliferation assay. Type of experiment: cell-based, human. The conditions noted are these: for GI50: Homo sapiens, FH-B cells, MTS assay, 72 hour treatment. The procedure: MTS Cell Proliferation Assay: Three thousand FH-B cells were seeded per well in a 96-well plate and incubated at 37° C. for 20 hours. Compound dilutions were prepared in DMSO and added to the cell culture media to a final DMSO concentration of 1% for a 72 hour treatment. Cell growth inhibition was assessed by measuring absorbance at 490 nm using the Promega CellTiter 96® AQueous One Solution Cell Proliferation Assay (Promega, G358C). Percent growth inhibition was determined by the ratio of the absorbance of treatment wells to the absorbance of control wells. A non-linear regression plot of the percentage of growth inhibition versus compound concentration was prepared using GraphPad Prism software, using settings for the curves of variable slope and four parameters. The relative GI50 value was determined from the curve as the concentration of drug that provokes a response halfway between the top and bottom plateaus of the curve.

The test system of the next experiment is RPE cells. Description: Wound healing assay. Type of experiment: cell-based. The procedure:
Wound healing analysis: Confluent RPE cells were synchronized by incubating with 2 mM thymidine for 18-20 hours. Two intersecting lines were drawn into the confluent cells using a pipette tip. A phase-contrast image was acquired of the intersection point (“0 h” time-point) on an Olympus IX50 inverted microscope, immediately followed by treatment with the respective inhibitor and 2 mM thymidine. Phase-contrast images of the intersection point were acquired every 2 hours for 12 hours, continuing incubation at 37° C. in 5% CO2 in-between time points. Using ImageJ, the distances between each pair of neighboring vertices of the intersection point at each time-point were measured and normalized to the “0 h” sample.
RPE-hTERT Flp-In cells, propagated in DME M:F12 media with 10% fetal bovine serum at 37° C. in a 5% CO2 humidified incubator, were grown to confluence in 6-well tissue culture plates. One day prior to performing the wound healing assay, the medium was exchanged to also include 2 mM thymidine, so that the cells would stop dividing.
A cross-shaped wound was scratched into each well, and the cells imaged by phase contrast microscopy using at 4× magnification using a Olympus IX50 Inverted microscope. Then the cell media was exchanged to include vehicle (DMSO at 0.01%), 50 nM FQI2-34, 100 nM FQI2-34, or 200 nM FQI2-34; 2 mM thymidine was maintained throughout, as well. Cells were imaged again at 2 h, 4h, 6h, and 8h, in order to measure the migration of the cells into the wound.
Each of the 4 lines across the vertices of the “X” were individually measured from each set of images using ImageJ. Relative distances of cell migration into the wound were obtained by subtracting each of the lengths for 2-8 hour timepoints from the length at the 0 hour timepoint for that line and that sample. The averages of the four changes in lengths per sample were then plotted over time for each concentration of FQI2-34, from […], using Prism software. Triplicate technical replicates were performed for each concentration.

Experiment [2] has as its system FH-B cells. Nature of the experiment: Cell spreading area / cell compaction by microscopy. Type of experiment: cell-based, human. The procedure: Cells were washed as before, treated with Phalloidin-iFluor 488 Reagent (abcam, ab176753) for 1 hour in 1-5% BSA in PBS, followed by Hoechst 33342 (Thermo Fisher Scientific, H3570) for 5 minutes. Mounting medium (Fisher Scientific, P10144) and cover slips were applied onto dried cells. Individually discernible cells were imaged on an Olympus Fluoview 10i. Using ImageJ, the phalloidin channel was thresholded and area and circularity values were measured and integrated into swarmplots using Python's seaborn library.
For time lapse microscopy, FH-B cells in high μ-dishes were incubated with CellBrite™ Steady Membrane stain (Biotium, 30108-T) for 30-40 minutes in the environmental chamber of a Nikon C2 Si microscope at 37° C. and 5% CO2. Treatments were added to the cells through a syringe to reach final concentrations of 4 μM FQI1 or 0.01% DMSO. Immediately thereafter, a time-lapse series was acquired by imaging every 30 seconds for 30 minutes at 20× magnification.

`CCOc1ccccc1C1CC(=O)Nc2cc3c(cc21)OCO3` (centres unmarked) [FQI1, 8-(2-ethoxyphenyl)-7,8-dihydro-[1,3]dioxolo[4,5-g]quinolin-6(5H)-one]: halving of growth with FH-B cells [1] (GI50) required 2300 nM. In addition, in the experiment with RPE cells (4 μM FQI1), the “time by which inhibition of migration is detectable” value is ≤ 4 h. Also, the “migration of cells into the wound” value in the experiment with RPE cells (4 μM FQI1 or 1 μM nocodazole, monitored 12 hours) is recorded as “hindered RPE cells from migrating into the wound”. Besides, the “effect of FQI1 on cell spreading area after taxol pretreatment” value with FH-B cells [2] (1 μM taxol 30 minutes, then 4 μM FQI1) is given as “no detectable effect”. Besides, the “reduction in cell spreading area” value in the experiment on FH-B cells [2] (4 μM FQI1, 30-60 minutes, vs vehicle) came out at 1.7 fold; with FH-B cells [2] (Y-27632 pretreatment 30 minutes, then 4 μM FQI1 30 minutes) it was 1.2 fold; in the experiment on FH-B cells [2] (vehicle pretreatment (control group of Y-27632 experiment), 4 μM FQI1 30 minutes), 1.6 fold. Besides, in the experiment with FH-B cells [2] (vehicle pretreatment 30 minutes, then 4 μM FQI1 10 or 30 minutes), the “decrease in median cell spreading area” value stood at 1.5 fold.
On to `CCOc1cc(N(C)C)ccc1-c1cc(=O)[nH]c2cc3c(cc12)OCO3` [FQI2-34, 8-(4-(dimethylamino)-2-ethoxyphenyl)-[1,3]dioxolo[4,5-g]quinolin-6(5H)-one], for which, in the experiment on FH-B cells [1], the “fold higher efficacy than FQI1 in inhibiting proliferation of FH-B cells” value worked out at 17 fold and it took 140 nM to inhibit growth by half (GI50). Moreover, the “fold lower concentration than that used for FQI1 in the same assay” value in the experiment on RPE cells was found to be 20 fold. Besides, the “concentration that effectively inhibits cell migration” value in the experiment with RPE cells (50, 100, 200 nM tested, 2-8 h) was found to be 200 nM. Also, in the experiment with FH-B cells [2] (200 nM FQI2-34, 30 minutes, vs vehicle), the “decrease in cell spreading” value is reported as 2.1 fold. The “fold lower concentration than the effective concentrations for FQI1 (cell compaction)” value in the experiment on FH-B cells [2] (200 nM FQI2-34 vs 4 μM FQI1) was 20 fold.
